The assay deals with Drp1 (Homo sapiens (Human), UniProt O00429). Kind of assay: Drp1 Activity Screen: colorimetric (malachite green) GTPase assay. Particulars: 1 mM GTP, 20 min at 37° C.; for pIC50: GTPase activity, 0.6 μM Drp1 preincubated with 0.1 mg/mL liposomes; for max % inh: max % inhibition of Drp1 GTPase activity, 0.6 μM Drp1, 0.1 mg/mL liposomes. The assay is classed as biochemical. On the procedure: The GTPase activity of Drp1 was assayed using a colorimetric assay similar to as described previously by Leonard M. et al. “Robust colorimetric assays for dynamin's basal and stimulated GTPase activities.” Methods Enzymol. […] Briefly, for GTPase assays of purified Drp1 inhibitor samples, 0.6 μM Drp1 preincubated with 0.1 mg/mL liposomes (consisting of 80% soybean lipids/20% cardiolipin) and inhibitor was added to 1 mM GTP in a microtiter plate for 20 min at 37° C. in 4 mM MgCl2, 10 mM Hepes (pH 7.0), 100 mM KCl, 1 mM DTT. Reactions were stopped by diluting with 0.5 mM EDTA. Samples were then incubated with malachite green reagent (1 mM malachite green and 50 mM ammonium molybdate in 1 N HCl), and the absorbance at 650 nm was measured. The reaction rates, IC50 values, and max % inhibition were determined using Excel/GraphPad Prism software.
Drp1, sequence (O00429 whole entry): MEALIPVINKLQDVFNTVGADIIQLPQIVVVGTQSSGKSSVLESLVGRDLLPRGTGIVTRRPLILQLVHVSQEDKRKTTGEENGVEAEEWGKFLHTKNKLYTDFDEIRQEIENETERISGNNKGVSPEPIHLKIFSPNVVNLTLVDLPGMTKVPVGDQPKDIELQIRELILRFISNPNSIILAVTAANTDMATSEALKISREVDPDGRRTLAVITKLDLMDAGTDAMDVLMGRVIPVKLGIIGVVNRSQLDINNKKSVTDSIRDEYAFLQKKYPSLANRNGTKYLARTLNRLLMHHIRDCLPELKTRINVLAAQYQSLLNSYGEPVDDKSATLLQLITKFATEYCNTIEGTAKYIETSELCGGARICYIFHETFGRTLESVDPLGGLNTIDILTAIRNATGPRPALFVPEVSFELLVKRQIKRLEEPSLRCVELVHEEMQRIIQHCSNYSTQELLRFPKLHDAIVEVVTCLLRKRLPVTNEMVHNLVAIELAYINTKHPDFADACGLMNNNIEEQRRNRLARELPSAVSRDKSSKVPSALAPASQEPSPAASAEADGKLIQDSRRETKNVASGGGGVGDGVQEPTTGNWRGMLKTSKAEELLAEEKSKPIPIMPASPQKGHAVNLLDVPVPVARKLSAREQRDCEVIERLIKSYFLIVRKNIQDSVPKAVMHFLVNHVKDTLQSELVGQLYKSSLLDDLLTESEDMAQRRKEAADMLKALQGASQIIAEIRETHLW

From US11168080B2, “Dynamin-1-like protein inhibitors” (Mitobridge, Inc., priority 2017, dated 2021) come the findings set out here.

pIC50: −log10 of the molar value.

Compound `Cc1cc(C(=O)Nc2ccc(-c3cn[nH]c3)cc2)n(Cc2csc(N3CCCCC3)n2)c1` [Compound A-37, N-(4-(1H-pyrazol-4-yl)phenyl)-4-methyl-1-((2-(piperidin-1-yl)thiazol-4-yl)methyl)-1H-pyrrole-2-carboxamide] showed a pIC50 of 5.92.

Take `Cc1cc(C(=O)N[C@H]2CC[C@@H](C(=O)O)CC2)n(Cc2csc(N3CCCCC3)n2)c1` [Compound A-14, cis-4-(4-methyl-1-((2-(piperidin-1-yl)thiazol-4-yl)methyl)-1H-pyrrole-2-carboxamido)cyclohexane-1-carboxylic Acid]: the pIC50 is 4.41. Against the preceding compound, the pIC50 is 1.51 log units lower.

Take `O=C(O)c1ccc(NC(=O)c2ccccc2Cc2csc(N3CCCCC3)n2)cc1` [Compound A-11, 4-(2-((2-(piperidin-1-yl)thiazol-4-yl)methyl)benzamido)benzoic Acid]: the negative logarithm of the IC50 (pIC50) was less than 4.00.

`Cc1cc(C(=O)Nc2ccc3c(c2)CC(=O)N3)n(Cc2csc(N3CCCCC3)n2)c1` [Compound A-41, 4-methyl-N-(2-oxoindolin-5-yl)-1-((2-(piperidin-1-yl)thiazol-4-yl)methyl)-1H-pyrrole-2-carboxamide]: the negative logarithm of the IC50 (pIC50) is 5.38.

For `CNC(=O)c1ccc(NC(=O)c2cc(C)cn2Cc2csc(N3CCCCC3)n2)cc1` [Compound A-22, 4-methyl-N-(4-(methylcarbamoyl)phenyl)-1-((2-(piperidin-1-yl)thiazol-4-yl)methyl)-1H-pyrrole-2-carboxamide], the pIC50 is 5.74.

`Cc1cc(C(=O)Nc2ccc(-c3nn[nH]n3)cc2)n(Cc2csc(N3CCCCC3)n2)c1` [Compound A-7, N-(4-(1H-tetrazol-5-yl)phenyl)-4-methyl-1-((2-(piperidin-1-yl)thiazol-4-yl)methyl)-1H-pyrrole-2-carboxamide]: the negative-log IC50 (pIC50) is 6.04.

In the case of `Cc1cc(C(=O)Nc2ccc(C(=O)O)cc2)n(Cc2csc(N3CCOCC3)n2)c1` [Compound A-12, 4-(4-methyl-1-((2-morpholinothiazol-4-yl)methyl)-1H-pyrrole-2-carboxamido)benzoic Acid], the pIC50 was 4.60.

With `Cc1cc(C(=O)N(C)c2ccccc2)n(Cc2csc(N3CCCCC3)n2)c1` [Compound A-28, N,4-dimethyl-N-phenyl-1-((2-(piperidin-1-yl)thiazol-4-yl)methyl)-1H-pyrrole-2-carboxamide], the negative-log IC50 (pIC50) is less than 4.00.

Take `Cc1cc(C(=O)Nc2ccc(C(=O)O)cc2)n(Cc2cccc(N3CCCCC3)n2)c1` [Compound A-16, 4-(4-methyl-1-((6-(piperidin-1-yl)pyridin-2-yl)methyl)-1H-pyrrole-2-carboxamido)benzoic Acid]: the negative-log IC50 (pIC50) was 5.77.

In turn, `Cc1cc(C(=O)N[C@H]2CC[C@H](C(=O)O)CC2)n(Cc2csc(N3CCCCC3)n2)c1` [Compound A-13, trans-4-(4-methyl-1-((2-(piperidin-1-yl)thiazol-4-yl)methyl)-1H-pyrrole-2-carboxamido)cyclohexane-1-carboxylic Acid] showed a negative logarithm of the IC50 (pIC50) of 5.26.

`Cc1cc(C(=O)Nc2ccc(C(=O)O)cc2)n(Cc2csc(N3CCCCC3C)n2)c1` (stereo not shown) [Compound A-20, 4-(4-methyl-1-((2-(2-methylpiperidin-1-yl)thiazol-4-yl)methyl)-1H-pyrrole-2-carboxamido)benzoic Acid] showed a pIC50 of 5.41.

`Cc1cc(C(=O)Nc2ccc3ccccc3c2)n(Cc2csc(N3CCCCC3)n2)c1` [Compound A-23, 4-methyl-N-(naphthalen-2-yl)-1-((2-(piperidin-1-yl)thiazol-4-yl)methyl)-1H-pyrrole-2-carboxamide] had a pIC50 of 5.80.

For `Cc1cc(C(=O)Nc2cc(F)c(O)c(F)c2)n(Cc2csc(N3CCCCC3)n2)c1` [Compound A-24, N-(3,5-difluoro-4-hydroxyphenyl)-4-methyl-1-((2-(piperidin-1-yl)thiazol-4-yl)methyl)-1H-pyrrole-2-carboxamide], the negative logarithm of the IC50 (pIC50) is 4.66.

With `Cc1cc(C(=O)NCc2ccccc2)n(Cc2csc(N3CCCCC3)n2)c1` [Compound A-3, N-benzyl-4-methyl-1-((2-(piperidin-1-yl)thiazol-4-yl)methyl)-1H-pyrrole-2-carboxamide], the pIC50 is 5.32 and the max % inh turned out to be 70%.

Turning to `CC(=O)NS(=O)(=O)c1ccc(NC(=O)c2cc(C)cn2Cc2csc(N3CCCCC3)n2)cc1` [Compound A-6, N-(4-(N-acetylsulfamoyl)phenyl)-4-methyl-1-((2-(piperidin-1-yl)thiazol-4-yl)methyl)-1H-pyrrole-2-carboxamide], the negative logarithm of the IC50 (pIC50) is 5.30 and the max % inh was 71%.

`Cc1cc(C(=O)Nc2ccc(-c3ccc(C(=O)O)cc3)cc2)n(Cc2csc(N3CCCCC3)n2)c1` [Compound A-71, 4′-(4-methyl-1-((2-(piperidin-1-yl)thiazol-4-yl)methyl)-1H-pyrrole-2-carboxamido)-[1,1′-biphenyl]-4-carboxylic Acid] gave a pIC50 of 6.14 and a max % inh of 83%.

In turn, `Cc1cc(C(=O)Nc2ccc(-c3c(C)noc3C)cc2)n(Cc2csc(N3CCCCC3)n2)c1` [Compound A-36, N-(4-(3,5-dimethylisoxazol-4-yl)phenyl)-4-methyl-1-((2-(piperidin-1-yl)thiazol-4-yl)methyl)-1H-pyrrole-2-carboxamide] had a pIC50 of 5.85.

In turn, `Nc1cc(C(=O)Nc2ccc(C(=O)O)cc2)n(Cc2csc(N3CCCCC3)n2)c1` [Compound A-53, 4-(4-Amino-1-((2-(piperidin-1-yl)thiazol-4-yl)methyl)-1H-pyrrole-2-carboxamido)benzoic acid] showed a negative-log IC50 (pIC50) of less than 4.00.

The compound `Cc1cc(C(=O)Nc2ccc(C(=O)O)c(C)c2)n(Cc2csc(N3CCCCC3)n2)c1` [Compound A-61, 2-methyl-4-(4-methyl-1-((2-(piperidin-1-yl)thiazol-4-yl)methyl)-1H-pyrrole-2-carboxamido)benzoic Acid] had a pIC50 of 5.60.

For orientation: pIC50 means the negative decadic logarithm of the IC50, by convention in mol/L.
